Test results reported in patent US10287265B2, “Enantiomers of 8-hydroxyquinoline derivatives and the synthesis thereof” (AVIDIN Co. Ltd., priority 2015, dated 2019).

Tests used:
C57BL6/J mice = test: Short-term memory impairment caused by amyloid peptide aggregates (icv Aβ oligomers), Y maze test; assay type: in vivo, mouse; details: Y maze at day 4 post Aβ
Procedure: In vivo experiments were carried out according to the National Institute of Health guidelines for the care and use of laboratory animals, approved by the French Ministry for Research and Technology. In the course of experiments, animals were housed at a standard temperature (22±1° C.) and in a light-controlled environment (lights on from 7 a.m. to 8 p.m.) with ad libitum access to food and water. Male C57BL/6 mice (C57BL/6J Rj, ref. SC-CJ-12w-M, Janvier, France) were housed 5 animals per cage. From one week before the start of the experiment until the end of the experiment, mice were housed individually. Animals were monitored twice-a-day by laboratory personnel (8 a.m. and 4 p.m.). In this project, young (14 weeks old) as well as aged (15-16 months old) mice were used. Experiments were carried out using 12 mice per experimental group.
Investigation of short-term working memory—Y maze test Y maze tests were carried out as previously described. Prior to testing, mice were brought to the experimental room for at least 30 min to acclimatize to experimental room conditions. The Y maze is made of opaque Plexiglas and each arm is 40 cm long, 16 cm high, 9 cm wide and positioned at equal angles. The apparatus was placed in the test room in such a way that it was brightened homogeneously with 12-15 lux in the arms as well as in the central zone. One mouse at a time was placed at the end of one arm and was allowed to move in the maze freely during a 5 min examination. Each arm entry was recorded with those entries being counted where the mouse completely placed its hind paws in the chosen arm. […] Results were calculated as the percentage of the ratio of actual detected alternations to possible alternations (defined as the number of total arm entries minus 2).
For the examination of memory impairment caused by Aβ oligomers, a mouse model developed and validated by SynAging was used. […] At day 4 post Aβ treatment, short-term memory was assessed with the Y maze test. […]
At day 4 post Aβ treatment, short-term memory was assessed with the Y maze test.

human caspase 3 enzyme = molecular target: T1, human caspase 3 enzyme (Homo sapiens, UniProt P42574); test: Caspase 3 peptidase activity, Ac-DEVD-AMC substrate, fluorescence; assay type: biochemical
T1 construct: host or cells: E. coli
T1 sequence (P42574 29-175 limits assumed): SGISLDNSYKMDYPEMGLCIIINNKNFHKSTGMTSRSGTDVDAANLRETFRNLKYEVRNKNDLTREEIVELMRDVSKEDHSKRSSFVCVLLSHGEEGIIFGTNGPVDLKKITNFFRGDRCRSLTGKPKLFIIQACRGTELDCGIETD
T1 sequence (P42574 176-277 limits assumed): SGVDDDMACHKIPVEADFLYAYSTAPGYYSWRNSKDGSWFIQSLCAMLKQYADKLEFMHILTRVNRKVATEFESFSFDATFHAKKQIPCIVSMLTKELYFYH
Procedure: Throughout the experiments, human caspase 3 enzyme produced in E. coli was used as previously described (Mittl PRE, Marco S D, Krebs J F, Karanewsky D S, Priestle J P, Tomaselli K J and Grutter M G (1997) Structure of Recombinant Human CPP32 in Complex with the Tetrapeptide Acetyl-Asp-Val-Ala-Asp Fluoromethyl Ketone. J Biol Chem. 272: 6539-6547). […] After the addition of […] Ac-DEVD-AMC substrate, the reaction ran for 60 min. The amount of generated AMC (7-amino-4-methylcoumarine), which gives information about the enzyme activity, was detected by fluorescence at 360/465 nm.

- inhibition of caspase-3 enzyme (concentration range in words) (human caspase 3 enzyme): inhibits in micromolar concentration
- reduction of the activity of caspase 3 enzyme (human caspase 3 enzyme; applied concentration of 10 μM): 74%
SMILES: Cc1ccnc(N[C@H](c2ccc(C(F)(F)F)cc2)c2ccc3cccnc3c2O)n1 [Example 2, 7-[(R)-[(4-Methylpyrimidin-2-yl)amino][4-(trifluoromethyl)phenyl]methyl]quinolin-8-ol]
- inhibition of short-term memory impairment caused by fibrillar aggregates of amyloid peptides (C57BL6/J mice; 4 mg/kg body weight per os once daily for four days): inhibited
- inhibition of short-term memory impairment caused by fibrillar aggregates of amyloid peptides, dose dependence (C57BL6/J mice; 0.5, 2 and 4 mg/kg body weight per os once daily for four days): in a dose-dependent manner
